The term pKi denotes the negative decadic logarithm of the Ki, by convention in mol/L. Low values mean a high Ki, high ones a low Ki.

The source of these data is US20250122225A1, “MASP-2 INHIBITORS AND METHODS OF USE” (Omeros Corporation, priority 2023, published 2025).

pKi: −log10 of the molar value. Where a name gives a salt, the structure may show the parent alone. Bounds are passed on as bounds.

One assay deals with T1, MASP-2 (CCP1-CCP2-SP) (Homo sapiens, UniProt O00187).
T1 construct: 15 μL of Enzyme MASP-2 (CCP1-CCP2-SP) in Assay Buffer
T1 sequence (O00187 445-686 limits assumed): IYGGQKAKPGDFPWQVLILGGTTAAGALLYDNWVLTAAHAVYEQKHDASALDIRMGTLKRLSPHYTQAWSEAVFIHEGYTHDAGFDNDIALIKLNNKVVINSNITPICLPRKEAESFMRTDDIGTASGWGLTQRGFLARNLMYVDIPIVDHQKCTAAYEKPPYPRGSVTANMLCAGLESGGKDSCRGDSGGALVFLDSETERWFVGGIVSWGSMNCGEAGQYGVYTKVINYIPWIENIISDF
T1 sequence (O00187 287-444 partner limits assumed): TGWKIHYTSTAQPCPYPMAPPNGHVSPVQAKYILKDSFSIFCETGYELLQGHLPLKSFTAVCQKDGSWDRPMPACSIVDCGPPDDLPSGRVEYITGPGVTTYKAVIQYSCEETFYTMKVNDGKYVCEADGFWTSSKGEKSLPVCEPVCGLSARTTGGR
Put plainly: Enzymatic assay for MASP-2 inhibitory activity (fluorogenic substrate). In kind it is biochemical. How it is done:
The MASP-2 assay utilizes a fluorogenic substrate, based on the cleavage site for its natural substrate C2. The assay was run at room temperature in an assay buffer containing 20 mM HEPES, pH 7.4, 140 mM NaCl and 0.1% Tween 20. Assay parameters were adjusted such that the assay was linear with respect to time, enzyme, and substrate concentrations. Under the optimized assays conditions, IC50 values were equivalent to Ki values, except in the few cases of “tight binding” inhibitors. Cases of “tight binding” or possible “slow binding” inhibitors were handled by the methods described in Copeland R. A. (2013) Evaluation of Enzyme Inhibitors in Drug Discovery. 2nd Ed., John Wiley and Sons, Inc., Chapters 5-7.
The MASP-2 assay protocol was carried out as follows. Test compounds were serially diluted in DMSO and then 100 nL of each dilution was transferred to the assay plate(s). 10 μL of Assay Buffer was added, followed by 15 μL of Enzyme MASP-2 (CCP1-CCP2-SP) in Assay Buffer. 15 μL of Substrate in Assay Buffer was then added and the mixture was mixed to start the reaction. After 20 min at room temperature, 15 μL of a stop solution (0.1 M acetic acid) was added, the sample was mixed, and the plates were read on a SpectraMax i3x Microplate Reader with the data exported as an Excel file. Each assay plate included a “no inhibitor” (DMSO only) control, a “no enzyme” control, and a reference inhibitor control. % Activity values=100*(average test comp. fluorescence−average “no enzyme” fluorescence)/(average “DMSO only” fluorescence−average “no enzyme” fluorescence). IC50 and Ki replicate values were very reproducible, with values well within ±2-fold.

Another assay deals with T2, human α-thrombin (Homo sapiens, UniProt P00734).
T2 construct: enzyme (human α-thrombin (BioPharm® Lab.)) in assay buffer; purchased BioPharm® Lab
As to the kind of experiment: Enzymatic assay for thrombin (fluorogenic peptide substrate Boc-VPR-AMC). Format: biochemical. The protocol:
The thrombin assay utilizes a fluorogenic peptide substrate (Boc-VPR-AMC (R&D Systems) and was run at room temperature in an assay buffer containing 20 mM Hepes, pH 7.4, 140 mM NaCl and 0.1% Tween 20. Assay parameters were adjusted such that the assay was linear with respect to time, enzyme, and substrate concentrations. Under these optimized assays conditions, IC50 values were equivalent to Ki values, except in a few cases of “tight binding” inhibitors. Cases of “tight binding” or possible “slow binding” inhibitors were handled by the methods described in Copeland R. A. (2013) Evaluation of Enzyme Inhibitors in Drug Discovery. 2nd Ed. John Wiley and Sons, Inc., Chapters 5-7.
The thrombin assay protocol was carried out as follows. Test compounds were serially diluted in DMSO and then 100 nL of each dilution was transferred to the assay plate(s). 10 μL of Assay Buffer was added, followed by 15 μL of enzyme (human α-thrombin (BioPharm® Lab.)) in assay buffer. 15 μL of substrate in assay buffer was then added and the sample mixed to start the reaction. After 20 min at room temperature, 15 μL of a stop solution (0.1 M acetic acid) was added, the sample was mixed, and the plates were read on a SpectraMax® i3x Microplate Reader with the data exported as Excel files. Each assay plate included a “no inhibitor” (DMSO only) control, a “no enzyme” control, and a reference inhibitor control. % Activity values=100*(ave. test comp. fluorescence−ave. “no enz” fluorescence)/(ave. “DMSO only” fluorescence−ave. “no enz” fluorescence). IC50 and Ki values were very reproducible, with values falling well within ±2-fold.

As to `O=C(NCc1cc2cnccc2[nH]1)[C@@H]1CCc2c(Cl)nc(NCCC(F)F)c(=O)n21` [Compound 19, (S)-N-((1H-pyrrolo[3,2-c]pyridin-2-yl)methyl)-1-chloro-3-((3,3-difluoropropyl)amino)-4-oxo-4,6,7,8-tetrahydropyrrolo[1,2-a]pyrazine-6-carboxamide], the negative logarithm of the Ki (pKi) is greater than 6.30 on MASP-2 (CCP1-CCP2-SP) and less than 4.60 at human α-thrombin.

For `Cc1ccc(F)c(CNc2nc(Cl)c3n(c2=O)[C@H](C(=O)NCc2ccc(N)nc2C)CC3)c1` [Compound 20, (S)-N-((6-amino-2-methylpyridin-3-yl)methyl)-1-chloro-3-((2-fluoro-5-methylbenzyl)amino)-4-oxo-4,6,7,8-tetrahydropyrrolo[1,2-a]pyrazine-6-carboxamide], the pKi was greater than 6.30 at MASP-2 (CCP1-CCP2-SP) and 5.60 to 6.30 at human α-thrombin.

Take `Cc1ccc(F)c(CNc2nc(Cl)c3n(c2=O)[C@H](C(=O)NCc2cc4cnccc4[nH]2)CC3)c1` [Compound 21, (S)-N-((1H-pyrrolo[3,2-c]pyridin-2-yl)methyl)-1-chloro-3-((2-fluoro-5-methylbenzyl)amino)-4-oxo-4,6,7,8-tetrahydropyrrolo[1,2-a]pyrazine-6-carboxamide]: the pKi at MASP-2 (CCP1-CCP2-SP) was greater than 6.30; on human α-thrombin, 5.00 to 5.60.

`COCCCCNc1nc(Cl)c2n(c1=O)[C@H](C(=O)NCc1cc3cnccc3[nH]1)CC2` [Compound 22, (S)-N-((1H-pyrrolo[3,2-c]pyridin-2-yl)methyl)-1-chloro-3-((4-methoxybutyl)amino)-4-oxo-4,6,7,8-tetrahydropyrrolo[1,2-a]pyrazine-6-carboxamide]: the pKi on MASP-2 (CCP1-CCP2-SP) was greater than 6.30; at human α-thrombin, 4.60 to 5.00.

Consider `Cc1cc(CNc2nc(Cl)c3n(c2=O)[C@H](C(=O)NCc2cc4cnccc4[nH]2)CC3)cc(C(F)(F)F)c1` [Compound 23, (S)-N-((1H-pyrrolo[3,2-c]pyridin-2-yl)methyl)-1-chloro-3-((3-methyl-5-(trifluoromethyl)benzyl)amino)-4-oxo-4,6,7,8-tetrahydropyrrolo[1,2-a]pyrazine-6-carboxamide], for which the pKi on MASP-2 (CCP1-CCP2-SP) is greater than 6.30; at human α-thrombin it was less than 4.60.

In the case of `Cc1cc(C)cc(CNc2nc(Cl)c3n(c2=O)[C@H](C(=O)NCc2ccc(N)nc2C)CC3)c1` [Compound 24, trifluoroacetate], the pKi is greater than 6.30 on MASP-2 (CCP1-CCP2-SP) and 5.00 to 5.60 on human α-thrombin.

`O=C(NCc1cc2cnccc2[nH]1)[C@@H]1CCc2c(Cl)nc(NCc3cccc(F)c3)c(=O)n21` [Compound 25, (S)-N-((1H-pyrrolo[3,2-c]pyridin-2-yl)methyl)-1-chloro-3-((3-fluorobenzyl)amino)-4-oxo-4,6,7,8-tetrahydropyrrolo[1,2-a]pyrazine-6-carboxamide]: the pKi is greater than 6.30 on MASP-2 (CCP1-CCP2-SP) and 4.60 to 5.00 on human α-thrombin.

Consider `Cc1ccc(CNc2nc(Cl)c3n(c2=O)[C@H](C(=O)NCc2cc4cnccc4[nH]2)CC3)cc1C` [Compound 26, (S)-N-((1H-pyrrolo[3,2-c]pyridin-2-yl)methyl)-1-chloro-3-((3,4-dimethylbenzyl)amino)-4-oxo-4,6,7,8-tetrahydropyrrolo[1,2-a]pyrazine-6-carboxamide], for which the pKi on MASP-2 (CCP1-CCP2-SP) was greater than 6.30; at human α-thrombin it was 4.60 to 5.00.

In the case of `Nc1nc2cc(CNC(=O)[C@@H]3CCc4c(Cl)nc(NCc5ccccc5)c(=O)n43)ccc2[nH]1` [Compound 29, trifluoroacetate], the negative logarithm of the Ki (pKi) at MASP-2 (CCP1-CCP2-SP) is greater than 6.30; at human α-thrombin, 4.60 to 5.00.

Regarding `Cc1nc(N)ccc1CNC(=O)[C@@H]1CCc2c(Cl)nc(NCc3ccc(Cl)cc3)c(=O)n21` [Compound 30, trifluoroacetate], the pKi at MASP-2 (CCP1-CCP2-SP) was greater than 6.30; at human α-thrombin it was 5.00 to 5.60.

Take `Cc1cc(C)cc(CNc2nc(Cl)c3n(c2=O)[C@H](C(=O)NCc2cc4c(s2)CNC4)CC3)c1` [Compound 31, (S)-1-chloro-N-((5,6-dihydro-4H-thieno[2,3-c]pyrrol-2-yl)methyl)-3-((3,5-dimethylbenzyl)amino)-4-oxo-4,6,7,8-tetrahydropyrrolo[1,2-a]pyrazine-6-carboxamide]: the pKi on MASP-2 (CCP1-CCP2-SP) is greater than 6.30; at human α-thrombin it was 5.00 to 5.60.

Regarding `Cc1cccc(CNc2nc(Cl)c3n(c2=O)[C@H](C(=O)NCc2cc4c(s2)CNC4)CC3)c1F` [Compound 32, (S)-1-chloro-N-((5,6-dihydro-4H-thieno[2,3-c]pyrrol-2-yl)methyl)-3-((2-fluoro-3-methylbenzyl)amino)-4-oxo-4,6,7,8-tetrahydropyrrolo[1,2-a]pyrazine-6-carboxamide], the pKi on MASP-2 (CCP1-CCP2-SP) is greater than 6.30; at human α-thrombin, 5.00 to 5.60.

In the case of `Cc1cccc(CNc2nc(Cl)c3n(c2=O)[C@H](C(=O)NCc2cc4c(s2)CNC4)CC3)c1C` [Compound 33, (S)-1-chloro-N-((5,6-dihydro-4H-thieno[2,3-c]pyrrol-2-yl)methyl)-3-((2,3-dimethylbenzyl)amino)-4-oxo-4,6,7,8-tetrahydropyrrolo[1,2-a]pyrazine-6-carboxamide], the results for the pKi at MASP-2 (CCP1-CCP2-SP) and on human α-thrombin were greater than 6.30 and 5.00 to 5.60, respectively.

Consider `O=C(NCc1cc2c(s1)CNC2)[C@@H]1CCc2c(Cl)nc(NCc3cccc(C(F)F)c3)c(=O)n21` [Compound 34, (S)-1-chloro-3-((3-(difluoromethyl)benzyl)amino)-N-((5,6-dihydro-4H-thieno[2,3-c]pyrrol-2-yl)methyl)-4-oxo-4,6,7,8-tetrahydropyrrolo[1,2-a]pyrazine-6-carboxamide], for which the pKi is greater than 6.30 on MASP-2 (CCP1-CCP2-SP) and 5.00 to 5.60 at human α-thrombin.

As to `O=C(NCc1cc2c(s1)CNC2)[C@@H]1CCc2c(Cl)nc(NCc3ccccc3)c(=O)n21` [Compound 35], the figures for the pKi on MASP-2 (CCP1-CCP2-SP) and on human α-thrombin were greater than 6.30 and 5.00 to 5.60, respectively.

As for `Cc1cc(C)cc(CNc2ncc3n(c2=O)[C@H](C(=O)NCc2ccc(N)nc2C)CC3)c1` [Compound 36, (S)—N-((6-amino-2-methylpyridin-3-yl)methyl)-3-((3,5-dimethylbenzyl)amino)-4-oxo-4,6,7,8-tetrahydropyrrolo[1,2-a]pyrazine-6-carboxamide], the pKi at MASP-2 (CCP1-CCP2-SP) and at human α-thrombin was greater than 6.30 in each case.

`Cc1cc(CNc2ncc3n(c2=O)[C@H](C(=O)NCc2ccc(N)nc2C)CC3)cc(C(F)(F)F)c1` [Compound 37, (S)-N-((6-amino-2-methylpyridin-3-yl)methyl)-3-((3-methyl-5-(trifluoromethyl)benzyl)amino)-4-oxo-4,6,7,8-tetrahydropyrrolo[1,2-a]pyrazine-6-carboxamide]: the pKi on MASP-2 (CCP1-CCP2-SP) and at human α-thrombin was greater than 6.30 throughout.

As for `Cc1ccc(CNc2ncc3n(c2=O)[C@H](C(=O)NCc2ccc(N)nc2C)CC3)cc1C` [Compound 38, (S)-N-((6-amino-2-methylpyridin-3-yl)methyl)-3-((3,4-dimethylbenzyl)amino)-4-oxo-4,6,7,8-tetrahydropyrrolo[1,2-a]pyrazine-6-carboxamide], the pKi on MASP-2 (CCP1-CCP2-SP) and on human α-thrombin was greater than 6.30 in each case.

Consider `COc1cccc(CNc2ncc3n(c2=O)[C@H](C(=O)NCc2cc4cnccc4[nH]2)CC3)c1` [Compound 39, (S)-N-((1H-pyrrolo[3,2-c]pyridin-2-yl)methyl)-3-((3-methoxybenzyl)amino)-4-oxo-4,6,7,8-tetrahydropyrrolo[1,2-a]pyrazine-6-carboxamide trifluoroacetate], for which the negative-log Ki (pKi) is greater than 6.30 on MASP-2 (CCP1-CCP2-SP) and 5.00 to 5.60 on human α-thrombin.
